#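 How tested: cells in 96-well plates exposed to compound for 48 hours at five concentrations. The concentration for full growth arrest is given as TGI.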
# Assays:
# Assay in all cases: inhibition of tumour cell growth, NCI panel, 48 h
# MDA-N = system: MDA-N
# HS 578T breast = system: HS 578T breast
# LOX IMVI melanoma = system: LOX IMVI melanoma
# HOP-62 NSCLC = system: HOP-62 NSCLC
# U251 CNS = system: U251 CNS
# SR leukemia = system: SR leukemia
# EKVX NSCLC = system: EKVX NSCLC
# HOP-92 NSCLC = system: HOP-92 NSCLC
# BT-549 breast = system: BT-549 breast
# NCI-H226 lung = system: NCI-H226 lung
# SNB-75 CNS = system: SNB-75 CNS
# CCRF-CEM leukemia = system: CCRF-CEM leukemia
# MALME-3M melanoma = system: MALME-3M melanoma
# T-47D breast = system: T-47D breast
# SK-OV-3 ovarian = system: SK-OV-3 ovarian
# COLO 205 colon = system: COLO 205 colon
# MOLT-4 leukemia = system: MOLT-4 leukemia
# DU-145 prostate = system: DU-145 prostate
# NCI/ADR-RES ovarian = system: NCI/ADR-RES ovarian
# MDA-MB-231 breast = system: MDA-MB-231 breast
# NCI-H23 lung = system: NCI-H23 lung
# HT29 colon = system: HT29 colon
# SNB-19 CNS = system: SNB-19 CNS
# UACC-62 melanoma = system: UACC-62 melanoma
# SF-539 CNS = system: SF-539 CNS
# HCC-2998 colon = system: HCC-2998 colon
# SK-MEL-28 melanoma = system: SK-MEL-28 melanoma
# SN12C renal = system: SN12C renal
# ACHN renal = system: ACHN renal
# NCI-H460 lung = system: NCI-H460 lung
# SF-268 CNS = system: SF-268 CNS
# SF-295 CNS = system: SF-295 CNS
# IGROV1 ovarian = system: IGROV1 ovarian
# RPMI-8226 leukemia = system: RPMI-8226 leukemia
# M14 melanoma = system: M14 melanoma
# MCF7 breast = system: MCF7 breast
# 786-0 renal = system: 786-0 renal
# SK-MEL-5 melanoma = system: SK-MEL-5 melanoma
# TK-10 renal = system: TK-10 renal
# UACC-257 melanoma = system: UACC-257 melanoma
# HL-60(TB) leukemia = system: HL-60(TB) leukemia
# PC-3 prostate = system: PC-3 prostate
# OVCAR-4 ovarian = system: OVCAR-4 ovarian
# CAKI-1 renal = system: CAKI-1 renal
# UO-31 renal = system: UO-31 renal
# MDA-MB-435 = system: MDA-MB-435
# KM12 colon = system: KM12 colon
# HCT-116 colon = system: HCT-116 colon
# RXF 393 renal = system: RXF 393 renal
# SK-MEL-2 melanoma = system: SK-MEL-2 melanoma
# K-562 leukemia = system: K-562 leukemia
# OVCAR-3 ovarian = system: OVCAR-3 ovarian
# HCT-15 colon = system: HCT-15 colon
# SW-620 colon = system: SW-620 colon
# A549 NSCLC = system: A549 NSCLC
# OVCAR-8 ovarian = system: OVCAR-8 ovarian
# NCI-H522 lung = system: NCI-H522 lung
# OVCAR-5 ovarian = system: OVCAR-5 ovarian
# A498 renal = system: A498 renal
smiles,measurement,setting,value
c1ccc(N=C2c3ccccc3CN2c2ccccc2)cc1,TGI,MDA-N,> 100 µM
same,TGI,HS 578T breast,> 100 µM
same,TGI,LOX IMVI melanoma,> 100 µM
same,TGI,HOP-62 NSCLC,> 100 µM
same,TGI,U251 CNS,> 100 µM
same,TGI,SR leukemia,> 100 µM
same,TGI,EKVX NSCLC,> 100 µM
same,TGI,HOP-92 NSCLC,> 100 µM
same,TGI,BT-549 breast,> 100 µM
same,TGI,NCI-H226 lung,> 100 µM
same,TGI,SNB-75 CNS,> 100 µM
same,TGI,CCRF-CEM leukemia,> 100 µM
same,TGI,MALME-3M melanoma,> 100 µM
same,TGI,T-47D breast,> 100 µM
same,TGI,SK-OV-3 ovarian,> 100 µM
same,TGI,COLO 205 colon,> 100 µM
same,TGI,MOLT-4 leukemia,> 100 µM
same,TGI,DU-145 prostate,> 100 µM
same,TGI,NCI/ADR-RES ovarian,> 100 µM
same,TGI,MDA-MB-231 breast,> 100 µM
same,TGI,NCI-H23 lung,> 100 µM
same,TGI,HT29 colon,> 100 µM
same,TGI,SNB-19 CNS,> 100 µM
same,TGI,UACC-62 melanoma,> 100 µM
same,TGI,SF-539 CNS,> 100 µM
same,TGI,HCC-2998 colon,> 100 µM
same,TGI,SK-MEL-28 melanoma,> 100 µM
same,TGI,SN12C renal,> 100 µM
same,TGI,ACHN renal,> 100 µM
same,TGI,NCI-H460 lung,> 100 µM
same,TGI,SF-268 CNS,> 100 µM
same,TGI,SF-295 CNS,> 100 µM
same,TGI,IGROV1 ovarian,> 100 µM
same,TGI,RPMI-8226 leukemia,> 100 µM
same,TGI,M14 melanoma,> 100 µM
same,TGI,MCF7 breast,> 100 µM
same,TGI,786-0 renal,> 100 µM
same,TGI,SK-MEL-5 melanoma,> 100 µM
same,TGI,TK-10 renal,> 100 µM
same,TGI,UACC-257 melanoma,> 100 µM
same,TGI,HL-60(TB) leukemia,> 100 µM
same,TGI,PC-3 prostate,> 100 µM
same,TGI,OVCAR-4 ovarian,> 100 µM
same,TGI,CAKI-1 renal,> 100 µM
same,TGI,UO-31 renal,> 100 µM
same,TGI,MDA-MB-435,> 100 µM
same,TGI,KM12 colon,> 100 µM
same,TGI,HCT-116 colon,> 100 µM
same,TGI,RXF 393 renal,> 100 µM
same,TGI,SK-MEL-2 melanoma,> 100 µM
same,TGI,K-562 leukemia,> 100 µM
same,TGI,OVCAR-3 ovarian,> 100 µM
same,TGI,HCT-15 colon,> 100 µM
same,TGI,SW-620 colon,> 100 µM
same,TGI,A549 NSCLC,> 100 µM
same,TGI,OVCAR-8 ovarian,> 100 µM
same,TGI,NCI-H522 lung,> 100 µM
C[C@]12CC[C@@H]3c4ccc(O)cc4CC[C@H]3[C@@H]1C/C(=C\c1ccc([N+](=O)[O-])cc1)C2=O,TGI,MDA-N,> 100 µM
same,TGI,LOX IMVI melanoma,> 100 µM
same,TGI,HOP-62 NSCLC,> 100 µM
same,TGI,U251 CNS,> 100 µM
same,TGI,SR leukemia,> 100 µM
same,TGI,EKVX NSCLC,> 100 µM
same,TGI,BT-549 breast,> 100 µM
same,TGI,NCI-H226 lung,> 100 µM
same,TGI,SNB-75 CNS,> 100 µM
same,TGI,CCRF-CEM leukemia,> 100 µM
same,TGI,MALME-3M melanoma,> 100 µM
same,TGI,T-47D breast,> 100 µM
same,TGI,SK-OV-3 ovarian,> 100 µM
same,TGI,COLO 205 colon,> 100 µM
same,TGI,MOLT-4 leukemia,> 100 µM
same,TGI,DU-145 prostate,> 100 µM
same,TGI,NCI/ADR-RES ovarian,> 100 µM
same,TGI,MDA-MB-231 breast,> 100 µM
same,TGI,NCI-H23 lung,> 100 µM
same,TGI,HT29 colon,37.2 µM
same,TGI,SNB-19 CNS,> 100 µM
same,TGI,OVCAR-5 ovarian,> 100 µM
same,TGI,UACC-62 melanoma,> 100 µM
same,TGI,SF-539 CNS,75 µM
same,TGI,HCC-2998 colon,> 100 µM
same,TGI,SK-MEL-28 melanoma,> 100 µM
same,TGI,SN12C renal,> 100 µM
same,TGI,ACHN renal,> 100 µM
same,TGI,NCI-H460 lung,> 100 µM
same,TGI,SF-268 CNS,> 100 µM
same,TGI,SF-295 CNS,> 100 µM
same,TGI,A498 renal,> 100 µM
same,TGI,IGROV1 ovarian,> 100 µM
same,TGI,RPMI-8226 leukemia,> 100 µM
same,TGI,M14 melanoma,> 100 µM
same,TGI,MCF7 breast,> 100 µM
same,TGI,786-0 renal,> 100 µM
same,TGI,SK-MEL-5 melanoma,> 100 µM
same,TGI,TK-10 renal,> 100 µM
same,TGI,UACC-257 melanoma,> 100 µM
same,TGI,PC-3 prostate,> 100 µM
same,TGI,OVCAR-4 ovarian,> 100 µM
same,TGI,CAKI-1 renal,> 100 µM
same,TGI,UO-31 renal,> 100 µM
same,TGI,MDA-MB-435,> 100 µM
same,TGI,KM12 colon,> 100 µM
same,TGI,HCT-116 colon,> 100 µM
same,TGI,RXF 393 renal,50.4 µM
same,TGI,SK-MEL-2 melanoma,> 100 µM
same,TGI,K-562 leukemia,> 100 µM
same,TGI,OVCAR-3 ovarian,> 100 µM
same,TGI,HCT-15 colon,> 100 µM
same,TGI,SW-620 colon,> 100 µM
same,TGI,A549 NSCLC,> 100 µM
same,TGI,OVCAR-8 ovarian,> 100 µM
same,TGI,NCI-H522 lung,65.4 µM

# Reference: PubChem BioAssay (NCI)
